Earlier results as cited in the PKSmart pharmacokinetics tables (Seal et al. 2025).

Columns and labels:
[1] = Lombardo et al. 2013, J Clin Pharmacol 53:178, doi 10.1177/0091270012440282; details: for Vd / clearance: in vivo, iv; for fraction unbound: plasma
[2] = Lombardo, Berellini, Obach 2018, Drug Metab Dispos 46:1466, doi 10.1124/dmd.118.082966; details: human; for MRT / Vd / clearance / half-life: in vivo, iv; for fraction unbound: plasma

| SMILES | Vd ([1]; dog) | Vd ([1]; rat) | clearance ([1]; rat) | MRT [2] | Vd [2] | clearance [2] | half-life [2] | fraction unbound [2] | clearance ([1]; dog) | fraction unbound ([1]; dog) | fraction unbound ([1]; rat) | Vd ([1]; monkey) | clearance ([1]; monkey) | fraction unbound ([1]; monkey) |
| --- | --- | --- | --- | --- | --- | --- | --- | --- | --- | --- | --- | --- | --- | --- |
| CC(=O)[C@]1(O)Cc2c(O)c3c(c(O)c2[C@@H](O[C@H]2C[C@H](N)[C@H](O)[C@H](C)O2)C1)C(=O)c1ccccc1C3=O | 34.5 L/kg | 36.5 L/kg | 78.5 mL/min/kg | 26 h | 38 L/kg | 24 mL/min/kg | 960 min | 0.076 | – | – | – | – | – | – |
| CC(C)c1cccc(C(C)C)c1O | 2.46 L/kg | 1.37 L/kg | 107 mL/min/kg | 2.2 h | 4.7 L/kg | 36 mL/min/kg | 192 min | 0.016 | 39.8 mL/min/kg | 0.02 | 0.03 | – | – | – |
| Nc1ccn([C@@H]2CO[C@H](CO)O2)c(=O)n1 | – | 1.42 L/kg | 23 mL/min/kg | 6.9 h | 1 L/kg | 2.4 mL/min/kg | 4920 min | – | – | – | – | – | – | – |
| Nc1ccc(S(=O)(=O)c2ccc(N)cc2)cc1 | – | 1.6 L/kg | 5.2 mL/min/kg | 29 h | 0.83 L/kg | – | – | 0.25 | – | – | – | – | – | – |
| CC1CC(=O)NN=C1c1ccc(NN=C(C#N)C#N)cc1 (stereo unspecified) | 0.22 L/kg | – | – | 1.1 h | 0.24 L/kg | 3.8 mL/min/kg | 66 min | 0.02 | 3.37 mL/min/kg | – | – | – | – | – |
| CCN(C(C)=O)c1cccc(-c2ccnc3c(C#N)cnn23)c1 | – | 1.72 L/kg | 20.7 mL/min/kg | 1.4 h | 1.3 L/kg | – | – | 0.4 | – | – | – | – | – | – |
| CC1(C)S[C@@H]2C(NC(=O)C(N)c3ccccc3)C(=O)N2C1C(=O)O (stereo partly specified) | 0.58 L/kg | 1.1 L/kg | 19 mL/min/kg | 1.3 h | 0.22 L/kg | 2.8 mL/min/kg | 84 min | – | 9.1 mL/min/kg | 0.58 | 0.6 | – | – | – |
| CO[C@@]1(NC(=O)CSCC#N)C(=O)N2C(C(=O)O)=C(CSc3nnnn3C)CS[C@@H]21 | 0.9 L/kg | 0.35 L/kg | 25.3 mL/min/kg | 1.5 h | 0.13 L/kg | 1.5 mL/min/kg | 90 min | 0.15 | 8 mL/min/kg | 0.75 | 0.55 | 0.3 L/kg | 3.3 mL/min/kg | 0.34 |
| COC(=O)C1=C(C)NC(C)=C(C(=O)OCC(C)C)C1c1ccccc1[N+](=O)[O-] (stereo unspecified) | 4.1 L/kg | 0.89 L/kg | 45.8 mL/min/kg | 6.5 h | 5.5 L/kg | 15 mL/min/kg | 660 min | – | 37.2 mL/min/kg | 0.028 | – | – | – | – |
| COCC(=O)O[C@]1(CCN(C)CCCc2nc3ccccc3[nH]2)CCc2cc(F)ccc2[C@@H]1C(C)C | 9.7 L/kg | – | 94 mL/min/kg | 13 h | 3.1 L/kg | 4 mL/min/kg | 780 min | 0.005 | 18.4 mL/min/kg | – | – | – | – | – |
| Cc1cccc(C)c1NC(=O)NCCCNC(C)C | 1.2 L/kg | 3.2 L/kg | 82 mL/min/kg | 5.2 h | 1.4 L/kg | 4.5 mL/min/kg | 300 min | 0.86 | 13 mL/min/kg | 0.7 | 0.88 | 3 L/kg | 26.7 mL/min/kg | 0.69 |
| COC(=O)C1=C(C)NC(C)=C(C(=O)OC)C1c1ccccc1[N+](=O)[O-] | 1.15 L/kg | 0.27 L/kg | – | – | – | – | 114 min | – | – | – | 0.035 | – | – | – |
| CC(CC(c1ccccc1)c1ccccc1)NC(C)(C)C (stereo unspecified) | – | – | – | 81 h | 5.1 L/kg | 1.1 mL/min/kg | 3360 min | – | 41 mL/min/kg | 0.14 | – | – | – | – |
| NCc1ccccc1CC(=O)NC1C(=O)N2C(C(=O)O)=C(CSc3nnnn3CC(=O)O)CS[C@H]12 (stereo partly specified) | 0.5 L/kg | 0.5 L/kg | 5.4 mL/min/kg | 4.3 h | 0.17 L/kg | 0.66 mL/min/kg | 180 min | 0.19 | 6.5 mL/min/kg | – | – | – | – | – |
| C[C@@H](O)C1C(=O)N2C(C(=O)O)=C(COC(N)=O)S[C@H]12 (stereo partly specified) | 0.22 L/kg | 0.05 L/kg | 15.5 mL/min/kg | 0.54 h | 0.24 L/kg | 7.55 mL/min/kg | 32.4 min | 0.72 | 7.4 mL/min/kg | 0.95 | 0.5 | 0.14 L/kg | 4.65 mL/min/kg | 0.56 |
| CN(C)CCCC1(c2ccc(F)cc2)OCc2cc(C#N)ccc21 (stereo unspecified) | 10 L/kg | 21 L/kg | 82 mL/min/kg | 47 h | – | 4.3 mL/min/kg | 1980 min | – | 14 mL/min/kg | 0.444 | 0.26 | 10 L/kg | 40 mL/min/kg | 0.399 |
| CCC(C)C(=O)O[C@H]1C[C@H](O)C=C2C=C[C@H](C)[C@H](CC[C@@H](O)C[C@@H](O)CC(=O)O)[C@H]21 (stereo partly specified) | – | 0.19 L/kg | 36 mL/min/kg | – | 0.46 L/kg | 14 mL/min/kg | 46.8 min | – | – | – | 0.33 | – | – | – |
| CC(=O)Oc1ccccc1C(=O)O | – | 0.4 L/kg | 87 mL/min/kg | 0.3 h | 0.22 L/kg | 12 mL/min/kg | 15.6 min | 0.68 | – | – | – | – | – | – |
| CCS(=O)(=O)CCn1c([N+](=O)[O-])cnc1C | 0.89 L/kg | – | – | 16 h | 0.59 L/kg | 0.6 mL/min/kg | 780 min | – | 1.67 mL/min/kg | – | – | – | – | – |
| CCCCCNC(=O)c1coc([C@H]2[C@@H](Cc3ccccc3CCC(=O)O)[C@@H]3CC[C@H]2O3)n1 | 11 L/kg | 2.8 L/kg | 87.5 mL/min/kg | 11 h | 4.4 L/kg | 6.4 mL/min/kg | 1320 min | – | 65 mL/min/kg | – | – | 5.5 L/kg | 19.1 mL/min/kg | – |
